“And” between values parts separate entries of the source, which are not always exact repeats. Identical values can stand only once. “Also recorded” adds a separate entry of the source.
Tests used:
[1] = Acute toxicity in mice, single i.p. injection; conditions: mouse, in vivo, ip, Table 3, 1000 (*) or 500 (**) μmole/kg, read-out: acute toxicity (asterisk), lethality in 7 days
Description: A test of acute toxicity was also carried out, as follows. Two mice were each given a single i.p. injection of 100, 500, or 1000 μmole/kg of ligand dissolved in 0.5 to 1.0 ml of saline at pH=7.5. Sparingly soluble ligands, dispersed by sonication, were given as finely divided suspensions. After 7 days observation, the mice were killed, selected tissues were removed and fixed for histopathological examination, and unusual findings at autopsy were recorded.
^a Single or double asterisks indicate acutely toxic (50% to 100%
lethality) in 7 days after a single i.p. injection of 1000 or 500
μmole/kg, respectively.

transferrin = experiment: Removal of iron from transferrin; assay type: biochemical
Description: (§1) Removal of Iron From Transferrin: The effectiveness of 3HOPOCAM as a ferri ion chelator was evaluated in terms of its potential for removing iron from transferrin. In order to account for the effect of proton competitio in the ligand strength comparisons, the relative ironbinding abilities of the ligands were ranked by the pM value, defined as -log [Fe^+3 ] of pH 7.4 solution that is 10^-5 M in total ligand and 10^-6 M in total iron. The pM for 3HOPOCAM was determined (by binding competition experiments with EDTA) to be 21.7, about 4 to 14 units lower than the pM value for siderophores containing three bidentate catechol or hydroxamate groups. […] Ligands incorporating more than two "HOPO" groups should be effective in removing iron from transferrin at even lower concentrations.

[2] = Relative iron-binding ability (pM value) by binding competition with EDTA
Description: as §1

[3] = Promotion of excretion of ^238 Pu(IV) in mice; assay type: in vivo; conditions: for Pu / actinide removal, in words: mouse, in vivo
Description: The novel chelating agents of the present invention were tested for their effectiveness in promoting excretion of ^238 Pu(IV) in mice as follows. Groups of five mice each received an intravenous injection of […] of ^238 Pu(IV) in citrate buffer, 9250 Bq/kg body wt. One hour later 30 μmole/kg of ligand (120 μmole/kg of monomeric ligands) was injected intraperitoneally in 0.5 ml of saline. The mice were killed 24 h after the Pu injection, frozen, and dissected after partial thawing. The ^238 Pu in skeleton, tissues, and separated excreta was determined by counting of the ^234 U L xrays.
^c Ligand was administered (30 μmole/kg, i.p.) at 1 hr and mice
were killed at 24 hr after injection (i.v.) of ^238 Pu(IV) citrate.
Dosage of monomers, HOPO--CO2 H and HOPO--COMe2, was 120

[4] = Iron removal bioassay in iron-loaded (transfused) mice; assay type: in vivo
Description: DFHOPOCAM was tested for its effectiveness in removing iron from iron-loaded mice. The mice tested had undergone three transfusions over five days of heat-treated canine red blood cells. Both low i.p. doses (about 20 mg/kg) and high doses (about 200 mg/kg) were administered, in aqueous solution.
Changes in splenic, hepatic, fecal and urinary iron in transfused
male mice treated with potential iron chelators for several days

[5] = higher dose, about 200 mg/kg i.p.

## O=C(NCCCN(CCCCN(CCCNC(=O)c1cccc(=O)n1O)C(=O)c1cccc(=O)n1O)C(=O)c1cccc(=O)n1O)c1cccc(=O)n1O [3,4,3-HOPOCAM]
[1]
  mortality at 168 h: 50 to 100%

## O=C(NCCCCN(CCCNC(=O)c1cccc(=O)n1O)C(=O)c1cccc(=O)n1O)c1cccc(=O)n1O [3,4-HOPOCAM]
[1]
  mortality at 168 h: 50 to 100%

## O=C(NCCCNC(=O)c1cccc(=O)n1O)c1cccc(=O)n1O [3-HOPOCAM]
transferrin
  concentration at which iron was removed from transferrin: approximately mM concentrations
transferrin; 30 min., 1.6 mM solution
  iron removed from transferrin: about 29%
[2]; pH 7.4, 10^-5 M total ligand, 10^-6 M total iron, competition with EDTA
  pM value (-log [Fe^+3 ]): 21.7

## O=C(O)CN(CCN(CC(=O)O)CC(=O)O)CCN(CC(=O)O)CC(=O)O [CaNa3 --DTPA, reference compound]
[3]; ligand 30 μmole/kg i.p. at 1 hr, killed 24 hr after Pu
  ^238 Pu Excreta (urine and feces, one value): 70% of injected ^238 Pu

## CC(=O)N(O)CCCCCNC(=O)CCC(=O)N(O)CCCCCNC(=O)CCC(=O)N(O)CCCCCNC(=O)c1cccc(=O)n1O [DFHOPOCAM]
[3]; 24 hr
  newly injected Pu excreted in 24 hr: 86%
[3]
  Pu / actinide removal, in words: extremely effective; also recorded: most effective removal of such ions
[3]; listed as HOPOsubstituted desferrioxamine
  Pu / actinide removal, in words: most effective Pu removal agent
[4]; 20 mg/kg i.p.
  Number Survivors: 10/10
  Percent Iron Changes vs. Control, Feces: +21%
  Percent Iron Changes vs. Control, Liver: -28%
  Percent Iron Changes vs. Control, Spleen: -11%
  Percent Iron Changes vs. Control, Urine: +39%
  Potency vs. Standard: 4.5
  Toxic Signs: none
[4]; 200 mg/kg i.p.
  Number Survivors: 10/10
  Percent Iron Changes vs. Control, Feces: +4%
  Percent Iron Changes vs. Control, Liver: -59%
  Percent Iron Changes vs. Control, Spleen: -17%
  Percent Iron Changes vs. Control, Urine: +93%
  Potency vs. Standard: 0.8
[4]; about 20 and about 200 mg/kg i.p., daily excreta, five-day recovery period
  damage to excretory pathways from excess metabolic iron: reversal of most of the damage to excretory pathways
[4]; both low and high doses
  source of iron: predominantly the liver
[4]; dose not given
  Potency relative to Desferal: about 4.5
[4]; [5]
  behavior and major organs: not grossly affected
  change in fecal iron content, in words: little change in iron content
  change in urine volume: -6%
  decrease in liver iron: 59%
  depression of fecal output: 24%
  fall in liver weight: 14%
  fall in spleen iron content: 17%
  increase in spleen weight: 25%
  rise in urinary iron: 93%
[4]; higher dose, about 200 mg/kg i.p., compared with low dose
  decrease in water imbibition: about the same order of magnitude as that seen for the low dose
[4]; iron excretion
  major route of excretion: through the kidneys
[4]; low dose, about 20 mg/kg i.p.
  behavior: not affected
  change in organ (spleen) weight, in words: not accompanied by a significant change in organ weight
  decline in hepatic (liver) weight: 8%
  decline in splenic iron: 11%
  decrease in hepatic iron: 28%
  fall in fecal output: 8%
  increase in excretion of iron via the feces: 21%
  increase in spleen weight: 4%
  increase in urinary iron: 39%
  necropsy: size or color of major organs: failed to reveal any changes in the size or color of major organs
  stimulation of urine production: 24%
[4]; mouse, in vivo
  relative potency (highest fraction of iron excreted), ranking: greatest
[4]; of a number of compounds tested
  toxicity to the kidneys, ranking: least toxic to the kidneys

## CC(=O)N(O)CCCCCNC(=O)CCC(=O)N(O)CCCCCNC(=O)CCC(=O)N(O)CCCCCN [Desferrioxamine, reference compound]
[4]; 250 mg/kg i.p.
  Number Survivors: 240/240 and 150/150
  Toxic Signs: none

## O=C(NCc1cc(CNC(=O)c2cccc(=O)n2O)cc(CNC(=O)c2cccc(=O)n2O)c1)c1cccc(=O)n1O [HOPO--MECAM]
[1]
  mortality at 168 h: 50 to 100%

## transferrin: transferrin, iron source in the iron removal test
[2]; pH 7.4, assuming [HCO3^- ]=0.024M
  pM value (-log [Fe^+3 ]) of transferrin: about 23.6

— US4698431A, “Hydroxypyridonate chelating agents” (priority 1985, dated 1987)
